These results are taken from patent US5574142A, “Peptide linkers for improved oligonucleotide delivery” (MicroProbe Corporation, priority 1992, dated 1996).

{C6NH2} = aminohexyl phosphate linker

Data set [1] concerns unmodified 20-mer ODN complement with the base sequence 5'-GTGACGAACATGGAGAACAT
The experiment in a line: Thermal denaturation studies (Tm of duplex with complementary ODN). The note with it: equimolar ODN and 20-mer complement, 2 μM solutions in pH 7.2 PBS, A260, 15-85° C. at 0.5° C./min. The format is binding. Here is the method: The ODN-peptide conjugates prepared from ODN1 were further characterized by thermal denaturation studies as described in EXAMPLE III. The dissociation of duplexes formed from equimolar concentrations of the ODN1-peptide conjugates and an unmodified 20-mer ODN target were examined. The changes in absorbance at 260 nm were measured as a function of temperature and the melting temperatures (Tm) were determined. […] Therefore, amino acid residue(s) from proteolysis of the linker are, generally speaking, expected to have little effect on the biological activity of the released ODN.
Thermal Denaturation Studies (ODN1-Peptides). Thermal dissociation curves were obtained by following changes in A260 of aqueous solutions containing equimolar amounts of the particular ODN1-peptide described above and an unmodified 20-mer ODN complement with the base sequence 5'-[…] Sequence ID No.: 14. The 5'-hexylamine modified 16-mer (ODN1) was used as a control in each run. ODNs were prepared as 2 μM solutions in pH 7.2 PBS. A Gilford System 2600 UV-VIS spectrophotometer equipped with a Gilford 2527 Thermoprogrammer was used. […] Absorbance vs. time and the first derivative data were recorded automatically. […] The Tm was determined using the derivative maxima: ODN1, Tm =62.8° C.; ODN1-PEP1, Tm =61.8° C.; ODN1-PEP2, Tm =59.0° C.; […]° C.

The test system of another data set is trypsin. The experiment in a line: Protease degradation studies (trypsin digestion, polyacrylamide gel electrophoresis). As to conditions: 2 μg ODN-peptide, Tris pH 9.0, EDTA, digesting 60 min, 20% denaturing polyacrylamide gel. The format is biochemical. From the text: The model ODN-peptide conjugates were further characterized by their susceptibility to proteolysis with trypsin. (For detail see EXAMPLE IV). As is known in the art, trypsin catalyzes the hydrolysis at the carboxyl side of lysine or arginine residues in the peptides. It was found in accordance with the present invention that trypsin had no effect on the ODN as shown by polyacrylamide gel electrophoresis in FIG. 6.
Protease Degradation Studies (ODN1-Peptides). The three ODN1-peptide conjugates (described in Table I) were characterized by treatment with trypsin. Solutions of 2 μg of the ODN-peptide in 7 μL of water were combined with 1 μL of 10x trypsin disruption solution, 1 μL of 100 mM Tris buffer (pH 9.0), and 1 μL of 100 mM EDTA. After digesting 60 min, the samples were loaded on 20% denaturing polyacrylamide gel. Electrophoresis indicated complete proteolysis of starting ODN1-peptide (see FIG. 6, lanes 1-6). Trypsin had no effect on an unmodified ODN1 control (lanes 8 and 9).

For “H2 N--(CH2)6 --O--PO2^- -5'O--CTCCATCTTCGTCACA (5' {C6NH2}, sugars by position and backbone not given here) [ODN1, 5'-hexylamine modified 16-mer ODN complementary to initiation codon region of Hepatitis B surface antigen mRNA]”, the “Tm (melting temperature, derivative maxima)” value in data set [1] is 62.8 °C. Moreover, the “proteolysis by trypsin (electrophoresis)” value in the data set with trypsin is given as “no effect”.
